Experimental data from patent publication US10675293B2, “Nucleoside agents for the reduction of the deleterious activity of extended nucleotide repeat containing genes” (The Board of Trustees of the Leland Stanford Junior …, priority 2015, dated 2020).
“Also recorded” adds a separate entry of the source.

Legend:
wild-type Htt gene = assay: RT-PCR of Htt mRNA in Hdh Q7/Q7 striatal cells; assay type: cell-based, mouse; conditions: compared to mock control
Protocol: (§1) Tet-on HeLa cells (Clontech Laboratories), and stable line 2-PN4 and 21-VS were cultured in DMEM (Gibco) supplemented with 10% Tet-off fetal bovine serum (Gibco) at 37° C. with 5% CO2. Hdh Q7/Q7 (mouse), Hdh Q111/Q111 (mouse) were cultured in DMEM (HyClone) supplemented with 10% fetal bovine serum at 33° C. with 5% C02.
(§2) Total RNA was extracted from murine neuronal cells using TRI Reagent (Sigma). For cDNA conversion, 2 μg of total RNA was mixed with 5 μM random primer, 5 μM SnRNA U6 rt-PCR primer and 500 μM dNTPs, incubated at 65° C. for 5 min and then chilled on ice. After addition of First-Strand Buffer, DTT (Cf=10 mM) and 1 μl reverse transcriptase (Invitrogen), the reaction was carried out at 42° C. for 1 hr. Equal volumes of cDNA products were PCR amplified and resolved on 2.5% agarose gels to determine the abundance of Htt transcripts after normalization with U6 or 18S ribosomal RNA.

[1] = tested on: Supt4h-YC and NGN-YN protein expression; assay: Western blot of Supt4h-YC and NGN-YN protein levels in 2-PN4 cells; assay type: cell-based, human
Protocol: As described (Liu et al., “Spt4 is selectively required for transcription of extended trinucleotide repeats,” Cell (2012) 148:690-701), equal amounts of protein were resolved by electrophoresis on 12% sodium dodecyl sulfate (SDS)-polyacrylamide gels, and transferred onto nitrocellulose membranes (nitrocellulose, Waterman 0.45 μM, NBA085C). After blocking with 5% low-fat milk in Tris-buffer saline containing 0.1% Tween-20, membranes were probed with primary antibodies, incubated with a horseradish peroxidase (HRP)-conjugated secondary antibody, and detected by ECL reagent (enhanced chemiluminescence, PerkinElmer).

mutant Htt gene = assay: RT-PCR of Htt mRNA in Hdh Q111/Q111 striatal cells; assay type: cell-based, mouse; conditions: compared to mock control
Protocol: as §1, §2

21-VS cells (HA-Venus) = assay: Control fluorescence of 21-VS stable cells expressing intact Venus; assay type: cell-based; conditions: same experimental conditions as 2-PN4 cells
Protocol: The HA-Supt4h-YC and FLAG-NGN-YN fragments were amplified by PCR using plasmid constructs described above and sub-cloned individually into the pTRE-tight-BI vector (Clontech Laboratories), which contain a bi-directional CMV promoter under the control of tetracycline. The coding sequence of yellow fluorescence protein Venus with a HA-epitope in its N-terminus was PCR-amplified and cloned into the vector to generate pTRE-HA-Venus.
Tet-on HeLa cells were transfected with linearized pTRE-HA-Supt4h-VC-Flag-NGN-VN plasmid construct using LipofectAMINE 2000 (Invitrogen). After transfection, cells were cultured initially in growth medium containing puromycin (1 μg/ml) and then selected for clones that show YFP fluorescence in the presence of tetracycline (4 μg/ml). The stable line having the strongest fluorescence signal was isolated and designated as 2-PN4. […]
Stable lines 2-PN4 and 21-VS were pre-cultured in 6-well plates, followed by an incubation of Doxycycline (4 μg/ml) together with various concentrations of chemical compounds for 24 hr. Cells were washed with PBS (Sigma) and monitored by microscope (20× magnification). Photos were taken using Nikon D500 camera with a setting of ISO 1600, shutter 1/200 for the light images, and shutter ½ for the fluorescence images. […] The average of overall fluorescence signal was determined and compared to the one observed in DMSO-treated control sample. […]

[2] = target: T1, Supt4h-YC / NGN-YN complex (Homo sapiens, UniProt O00267+P63272); assay: Co-immunoprecipitation of HA-Supt4h-YC with Flag-NGN-YN from 2-PN4 cells; assay type: cell-based; conditions: 20 μM, 36 hr, immunoprecipitation with anti-HA
T1 construct: NGN-YN is a genetic engineered protein in which Supt5h NGN domain is fused to YFP YN; expressed in transfected cells
Protocol: 2-PN4 cells, following a treatment of 6CR (Cf=20 μM) for 36 hr, were lysed with modified RIPA buffer (50 mM Tris-HCl [pH 7.5], 150 mM NaCl, 1% NP-40, 1% sodium deoxycholate), supplement with 1 mM Na3VO4, 1 mM DTT, 1 mM PMSF and protease inhibitor cocktail (Sigma). The collected protein lysates (1 mg) were diluted with modified RIPA buffer to a final volume of 0.5 ml and then incubated with anti-HA antibodies (1 μg) overnight. Following incubation with protein A agarose beads (Millipore) for another 6 hr, the beads were washed twice with modified RIPA buffer containing 20 μM 6CR. All of these performances were carried out at 4° C. For detection of proteins that coprecipitated with HA-Supt4h-YC, the immunocomplex was fractionated by SDS-PAGE, followed by Western blotting analysis with anti-HA and anti-FLAG antibodies.

[3] = target: T2, Supt4h-YC / Supt5h NGN-YN interaction (Homo sapiens, UniProt O00267+P63272); assay: Bimolecular fluorescence complementation (BiFC) assay in 2-PN4 stable cells; assay type: cell-based; conditions: 24 hr with Doxycycline 4 μg/ml
T2 construct: NGN-YN is a genetic engineered protein in which Supt5h NGN domain is fused to YFP YN; expressed in transfected cells
Protocol: Human Supt4h and Supt5hNGN were fused in-frame with the YC and YN respectively. The YN and YC represent the N- and C-terminal domain of yellow fluorescent protein Venus. To prevent a change in protein folding caused by the conjugation of two polypeptides (Kerppola, “Design and implementation of bimolecular fluorescence complementation (BiFC) assays for the visualization of protein interactions in living cells,” Nature protocols (2006) 1:1278-1286), a protein linker containing additional 10 amino acid residues was included in the fusion protein. Also, extra amino acids GSHM were incorporated into the Supt5hNGN to increase its protein stability (Wenzel et al., “Crystal structure of the human transcription elongation factor DSIF hSpt4 subunit in complex with the hSpt5 dimerization interface,” The Biochemical journal (2010) 425:373-380). Supt4h, NGN, YC, and YN were amplified by PCR to generate DNA fragments containing the nucleotide sequence of protein linker. Supt4h and NGN PCR products then were mixed with the PCR product of YN or YC for secondary overlapping PCR. Finally, the resulting Supt4h-YC and NGN-YN DNA fragment was cloned into plasmid vector pcDNA3-HA and pFLAG-CMV-2 respectively.
Tet-on HeLa cells were transfected with linearized pTRE-HA-Supt4h-VC-Flag-NGN-VN plasmid construct using LipofectAMINE 2000 (Invitrogen). After transfection, cells were cultured initially in growth medium containing puromycin (1 μg/ml) and then selected for clones that show YFP fluorescence in the presence of tetracycline (4 μg/ml). The stable line having the strongest fluorescence signal was isolated and designated as 2-PN4. Likewise, 21-VS stable line was created using pTRE-HA-Venus.
Stable lines 2-PN4 and 21-VS were pre-cultured in 6-well plates, followed by an incubation of Doxycycline (4 μg/ml) together with various concentrations of chemical compounds for 24 hr. Cells were washed with PBS (Sigma) and monitored by microscope (20× magnification). Photos were taken using Nikon D500 camera with a setting of ISO 1600, shutter 1/200 for the light images, and shutter ½ for the fluorescence images. For quantification of fluorescence intensity, 5 photos with similar cell number were taken and the fluorescence signal was measured by Metamorph software individually. The average of overall fluorescence signal was determined and compared to the one observed in DMSO-treated control sample.
For the purpose of high-throughput drug screening, based on the BiFC method as mentioned above, we have created a stable cell line that co-expresses NGN-YN and Supt4h-YC under the control of a tet-on inducible promoter. […] If the complementation that is driven by NGN and Supt4h interaction is inhibited by a given test compound, the de novo YFP fluorescence signal is affected. […]

total Huntingtin protein = assay: Western blot of total HTT in Huntington's disease patient iPSC ND36999; assay type: cell-based, human; conditions: iPSC with 180 CAG repeats, 24 hr
Protocol: (§3) Cell samples were lysed in 30 mM Tris-HCl, pH 8.0, 5 mM NaCl, 0.1% Triton X-100 for 10 min on ice. The supernatants from spinning (14 k rpm for 10 min) were collected. The protein concentrations were determined by BCA assay (Pierce, ThermoFisher). Equal amounts of protein were loaded onto 4-12% gel. After electrophoresis, the gels were transferred to nitrocellulose membranes by wet transfer at 35V for 16 hr. The protein level of mutant HTT, total HTT and tubulin were determined by immunoblotting with anti-poly Glutamine (MAB1574 from Millipore), anti-Huntingtin protein (MAB2166 from Millipore) and anti-alpha tubulin (AJ1034a from ABGENT). Blots were imaged on a Li-Cor Odyssey infrared imager. The bands intensities were determined by Li-Cor Odyssey software.
(§4) To test whether the nucleoside 6-Azauridine (HD101) and (−)-6-Azauridine 2′,3′,5′-triacetate (HD106) can affect the expression of proteins with long polyQ domains, one iPSC (induced pluripotent stem cell) line ND36999, which was derived from a Huntington's disease patient who carries one allele of mutant htt gene with 180 CAG repeats, was purchased from the Coriell Institute. The iPSCs were plated into a 24-well plate coated with Matrigel. […] Cells were lysed and the protein concentrations were determined by BCA assay. […] The image (FIG. 10) was taken and the quantification was made by Li-Cor Odyssey imaging system.

[4] = tested on: mutant Huntingtin protein; assay: Western blot of mutant HTT in Huntington's disease patient iPSC ND36999; assay type: cell-based, human; conditions: iPSC with 180 CAG repeats, 24 hr
Protocol: as §3, §4

Structure (SMILES) | Htt mRNA in cells with homozygous wild-type Htt allele (wild-type Htt gene) | protein expression of Supt4h-YC and NGN-YN [1] | Htt mRNA transcribed from mutant allele (mutant Htt gene) | fluorescence signal of 21-VS cells (21-VS cells (HA-Venus)) | complex formation of Supt4h-YC and NGN-YN [2] | fluorescence intensity of 2-PN4 cells relative to control sample ([3]; 10 μM) | BiFC fluorescence signal of 2-PN4 cells ([3]; various concentrations) | total Huntingtin protein expression level (total Huntingtin protein) | mutant Huntingtin protein level [4]
OC[C@H]1O[C@@H](n2cnc3c(Cl)ncnc32)C(O)C1O (stereo partly drawn) [6CR, 6-Chloropurine riboside] | not detectable | does not interfere with the protein expression | down-regulated; also recorded: reduces the expression of mutant Htt gene | not altered | lower the complex formation | decreased to half of control sample | reduces the fluorescence signal of 2-PN4 cells in a concentration-dependent manner; also recorded: inhibits Supt4h-YC and NGN-YN interaction |  | 
CC(=O)OC[C@H]1O[C@@H](n2ncc(=O)[nH]c2=O)[C@H](OC(C)=O)[C@@H]1OC(C)=O [HD106, (−)—6-Azauridine 2′,3′,5′-Triacetate] |  |  |  |  |  |  |  | little effect | preferentially decrease mutant Huntingtin protein in a dose dependent manner; also recorded: reduced mutant huntingtin expression in a dose dependent manner
